Here are results for 36 compounds from patent US11572341B2, “Biguanide compound and use thereof” (ImmunoMet Therapeutics Inc., priority 2014, dated 2023).

The subject of one assay is AMPKa [pT172]. The assay can be described thus: AMPKa activation [pT172] in MCF7 cell. It counts as cell-based.
Another assay relates to HCT116 cells. The assay can be described thus: Inhibitory effect against cancer cell proliferation (MTT). The assay is classed as cell-based, human. Conditions: Homo sapiens, HCT-116; HCT116, MTT, 48 hours; read-out: IC50 (uM) @ HCT116. The procedure: The formazane crystals thus formed were dissolved using dimethyl sulfoxide (DMSO) and absorbance of the solution was measured at 560 nm. After culturing for 48 hours, […] synthesized in Examples was indicated as cell viability (%) according to each treated concentration.

Structures are written as SMILES.

Regarding `CC1(C)CC(=O)N=C(NC(=N)N2CCCCC2)N1.Cl` [Example 151, N-(6,6-dimethyl-4-oxo-1,4,5,6-tetrahydropyrimidin-2-yl)piperidin-1-carboximidamide Hydrochloride], the entries for the “AMPKa activation [pT172] (Unit/ml) @ MCF7 cell” value (shortened to “AMPKa activation [pT172]”) in the assay on AMPKa [pT172] (5 uM), in the assay on AMPKa [pT172] (10 uM) and with AMPKa [pT172] (50 uM) were 9.4 Unit/ml, 7.7 Unit/ml and 11.2 Unit/ml, respectively.

On to `CC1CCNC(NC(=N)N2CCCCC2)=N1.Cl` (stereo not shown) [Example 162, N-(4-methyl-1,4,5,6-tetrahydropyrimidin-2-yl)piperidin-1-carboximidamide Hydrochloride], for which the “AMPKa activation [pT172]” value in the assay on AMPKa [pT172] (5 uM) worked out at 4.41 Unit/ml; with AMPKa [pT172] (10 uM), 4.04 Unit/ml; with AMPKa [pT172] (50 uM), 7.34 Unit/ml.

On to `Cl.N=C(N)NC(=N)Nc1ccc(OC(F)(F)F)cc1` [Example 140], for which the “AMPKa activation [pT172]” value in the assay with AMPKa [pT172] (5 uM) was found to be 6.2 Unit/ml; in the assay with AMPKa [pT172] (10 uM) it was 6.6 Unit/ml; in the assay with AMPKa [pT172] (50 uM) it was 8.7 Unit/ml.

Regarding `CN1CCN(C(=N)NC(=N)NCc2cccc(Cl)c2)CC1.Cl` [Example 35], the “AMPKa activation [pT172]” value with AMPKa [pT172] (5 uM) stood at 5.0 Unit/ml; with AMPKa [pT172] (10 uM), 4.2 Unit/ml; in the assay with AMPKa [pT172] (50 uM) it was 3.4 Unit/ml.

Consider `CC(C)CC1CC(=O)N=C(NC(=N)N2CCCCC2)N1.Cl` (stereo not shown) [Example 161, N-(6-isobutyl-4-oxo-1,4,5,6-tetrahydropyrimidin-2-yl)piperidin-1-carboximidamide Hydrochloride], for which the “AMPKa activation [pT172]” value in the assay on AMPKa [pT172] (5 uM) came to 3.03 Unit/ml; in the assay with AMPKa [pT172] (10 uM), 2.73 Unit/ml; in the assay on AMPKa [pT172] (50 uM) it was 4.06 Unit/ml.

Usually IC50 stands for the concentration needed to halve the response being measured. In the case of `CN1CCN(C(=N)NC(=N)Nc2ccc(Cl)cc2)CC1.Cl` [Example 27, N1-(4-methyl)piperazin-N5-4-chloro)phenyl Biguanide Hydrochloride], in the assay on HCT116 cells, the IC50 was over 100 µM.

`Cl.N=C(NC1=NC(=O)CC(C2CC2)N1)N1CCCCC1` (stereo not shown) [Example 157, N-(6-cyclopropyl-4-oxo-1,4,5,6-tetrahydropyrimidin-2-yl)piperidin-1-carboximidamide Hydrochloride]: the “AMPKa activation [pT172]” value in the assay on AMPKa [pT172] (5 uM) was determined as 4.17 Unit/ml; in the assay with AMPKa [pT172] (10 uM) it was 2.68 Unit/ml; in the assay with AMPKa [pT172] (50 uM), 2.00 Unit/ml.

For `CC1CC(=O)N=C(NC(=N)N)N1.Cl` (stereo not shown) [Example 164], the “AMPKa activation [pT172]” value is reported as 2.89 Unit/ml with AMPKa [pT172] (5 uM), 3.43 Unit/ml in the assay on AMPKa [pT172] (10 uM) and 2.77 Unit/ml in the assay with AMPKa [pT172] (50 uM).

On to `CCCC1CC(=O)N=C(NC(=N)N2CCCCC2)N1.Cl` (stereo not shown) [Example 163, N-(6-propyl-4-oxo-1,4,5,6-tetrahydropyrimidin-2-yl)piperidin-1-carboximidamide Hydrochloride], for which the “AMPKa activation [pT172]” value was 4.07 Unit/ml with AMPKa [pT172] (5 uM), 3.76 Unit/ml in the assay with AMPKa [pT172] (10 uM) and 4.48 Unit/ml in the assay with AMPKa [pT172] (50 uM).

As for `CN(C)C(=N)NC(=N)N1CCCCC1.Cl` [Example 1, N1,N1-dimethyl-N5-piperidine Biguanide Hydrochloride], in the assay with AMPKa [pT172] (50 uM), the “AMPKa activation [pT172]” value was determined as 4.6 Unit/ml.

`Cl.N=C(NC1=NCCCN1)N1CCCCC1` [Example 153, N-(1,4,5,6-tetrahydropyrimidin-2-yl)piperidin 1-carboximidamide Hydrochloride]: the “AMPKa activation [pT172]” value with AMPKa [pT172] (5 uM) turned out to be 8.0 Unit/ml; in the assay on AMPKa [pT172] (10 uM), 6.8 Unit/ml; with AMPKa [pT172] (50 uM) it was 6.3 Unit/ml.

As for `CN1CCN(C(=N)NC(=N)Nc2ccc(Cl)cc2)CC1.Cl` [Example 27], the “AMPKa activation [pT172]” value with AMPKa [pT172] (5 uM) turned out to be 9.8 Unit/ml; in the assay on AMPKa [pT172] (10 uM), 8.7 Unit/ml; in the assay on AMPKa [pT172] (50 uM), 14.3 Unit/ml.

Consider `Cl.N=C(N)NC(=N)N1CCOCC1` [Example 118], for which the “AMPKa activation [pT172]” value with AMPKa [pT172] (50 uM) is reported as 6.0 Unit/ml.

`CN1CCN(C(=N)NC(=N)Nc2ccc(F)c(F)c2)CC1.Cl` [Example 38]: the “AMPKa activation [pT172]” value worked out at 5.9 Unit/ml in the assay on AMPKa [pT172] (5 uM), 5.1 Unit/ml in the assay on AMPKa [pT172] (10 uM) and 6.4 Unit/ml in the assay on AMPKa [pT172] (50 uM).

With `CC1CN=C(NC(=N)N2CCCCC2)NC1.Cl` (stereo not shown) [Example 158, N-(5-methyl-1,4,5,6-tetrahydropyrimidin-2-yl)piperidin-1-carboximidamide Hydrochloride], the “AMPKa activation [pT172]” value with AMPKa [pT172] (5 uM) stood at 3.11 Unit/ml; in the assay on AMPKa [pT172] (10 uM), 2.49 Unit/ml; with AMPKa [pT172] (50 uM) it was 3.75 Unit/ml.

In the case of `Cl.N=C(NCc1ccc(OC(F)(F)F)cc1)NC(=N)Nc1cccnc1` [Example 42, Hydrochloride], the half-maximal inhibitory concentration (IC50) in the assay on HCT116 cells worked out at 23.7 µM.

Turning to `Cl.N=C(N)NC(=N)N1CCOCC1` [Example 118, Hydrochloride], the IC50 with HCT116 cells was over 100 µM.

With `CN1CCN(C(=N)NC(=N)Nc2ccc(F)c(F)c2)CC1.Cl` [Example 38, N1-(4-methylpiperazin-N5-(3,4-difluoro)phenyl Biguanide Hydrochloride], the IC50 in the assay with HCT116 cells is over 100 µM.

On to `CCC1CCNC(NC(=N)N2CCCCC2)=N1.Cl` (stereo not shown) [Example 165, N-(4-ethyl-1,4,5,6-tetrahydropyrimidin-2-)piperidin-1-carboximidamide Hydrochloride], for which the “AMPKa activation [pT172]” value with AMPKa [pT172] (5 uM) was 3.80 Unit/ml; in the assay with AMPKa [pT172] (10 uM), 4.36 Unit/ml; in the assay on AMPKa [pT172] (50 uM), 9.16 Unit/ml.

With `CC1CNC(NC(=N)N)=NC1=O.Cl` (stereo not shown) [Example 160, 1-(5-methyl-4-oxo-1,4,6-tetrahydropyrimidin-3-yl)guanidine Hydrochloride], the “AMPKa activation [pT172]” value in the assay on AMPKa [pT172] (5 uM) amounted to 2.51 Unit/ml; in the assay with AMPKa [pT172] (10 uM), 2.65 Unit/ml; in the assay with AMPKa [pT172] (50 uM) it was 2.84 Unit/ml.

For the compound `Cl.N=C(NC(=N)N1CCCCC1)N1CCCCC1` [Example 2, N1-piperidin-N5-piperidine Biguanide Hydrochloride], the “AMPKa activation [pT172]” value with AMPKa [pT172] (50 uM) is on record as 4.9 Unit/ml.

On to `Cl.N=C(NCCc1ccc(Cl)cc1)NC(=N)N1CCCCC1` [Example 13], for which the “AMPKa activation [pT172]” value with AMPKa [pT172] (50 uM) stood at 7.0 Unit/ml.

For `CNC(=N)NC(=N)N.Cl` [Example 108, N1-methyl Biguanide Hydrochloride], the “AMPKa activation [pT172]” value in the assay on AMPKa [pT172] (50 uM) is reported as 3.9 Unit/ml.

With `Cl.N=C(NCc1ccc2c(c1)OCO2)NC(=N)N1CCCCC1` [Example 9, N1-piperidin-N5-(benzo[d][1,3]dioxol-5-yl)methyl Biguanide Hydrochloride], the “AMPKa activation [pT172]” value with AMPKa [pT172] (50 uM) is listed as 16.3 Unit/ml.

With `Cl.N=C(NCCc1ccccc1Cl)NC(=N)N1CCCCC1` [Example 14], in the assay on AMPKa [pT172] (50 uM), the “AMPKa activation [pT172]” value turned out to be 11.0 Unit/ml.

With `CC(C)C1CC(=O)N=C(NC(=N)N2CCCCC2)N1.Cl` (stereo not shown) [Example 159, N-(6-isopropyl-4-oxo-1,4,5,6-tetrahydropyrimidin-2-yl)piperidin-1-carboximidamide Hydrochloride], the results for the “AMPKa activation [pT172]” value in the assay on AMPKa [pT172] (5 uM), in the assay on AMPKa [pT172] (10 uM) and in the assay on AMPKa [pT172] (50 uM) were 2.17 Unit/ml, 2.35 Unit/ml and 3.02 Unit/ml, respectively.

`CCOC1CCN(C(=N)NC(=N)Nc2cccc(OC(F)(F)F)c2)CC1.Cl` [Example 25]: the “AMPKa activation [pT172]” value in the assay with AMPKa [pT172] (5 uM) was 5.8 Unit/ml; in the assay with AMPKa [pT172] (10 uM), 7.0 Unit/ml; with AMPKa [pT172] (50 uM) it was “cell death”.

`CCCCN/C(=N\C1CCCCCC1)NC(=N)N.Cl` [Example 92, N1-butyl-N2-cycloheptyl Biguanide Hydrochloride]: the “AMPKa activation [pT172]” value with AMPKa [pT172] (50 uM) amounted to 21.1 Unit/ml.

As to `CN(C)C(=N)NC(=N)NCc1ccc2c(c1)OCO2.Cl` [Example 4, N1,N1-dimethyl-N5-(benzo[d][1,3]dioxol-5-yl)methyl Biguanide Hydrochloride], the “AMPKa activation [pT172]” value in the assay on AMPKa [pT172] (50 uM) was 3.8 Unit/ml.

On to `Cl.N=C(NC(=N)N1CCCC1)N1CCCCC1` [Example 5, N1-piperidin-N5-pyrrolidine Biguanide Hydrochloride], for which, in the assay on AMPKa [pT172] (50 uM), the “AMPKa activation [pT172]” value is 5.8 Unit/ml.

As for `CN(C)C(=N)NC(=N)N(C)Cc1cccc2ccccc12.Cl` [Example 3, N1,N1-dimethyl-N5-methyl-N5-1-(naphthalen-1-yl)methyl Biguanide Hydrochloride], the “AMPKa activation [pT172]” value in the assay on AMPKa [pT172] (50 uM) amounted to 6.2 Unit/ml.

Regarding `Cl.N=C(NCc1ccc(OC(F)(F)F)cc1)NC(=N)Nc1cccnc1` [Example 42], the “AMPKa activation [pT172]” value with AMPKa [pT172] (5 uM) is recorded as 4.3 Unit/ml; with AMPKa [pT172] (10 uM), 8.7 Unit/ml; with AMPKa [pT172] (50 uM) it was 19.1 Unit/ml.

With `CC1(C)CC(=O)N=C(NC(=N)N)N1.Cl` [Example 152], the figures for the “AMPKa activation [pT172]” value with AMPKa [pT172] (5 uM), in the assay on AMPKa [pT172] (10 uM) and in the assay on AMPKa [pT172] (50 uM) were 7.9 Unit/ml, 8.1 Unit/ml and 8.6 Unit/ml, respectively.

`Cl.N=C(NC(=N)N1CCCC1)Nc1ccc(Br)cc1` [Example 72]: the “AMPKa activation [pT172]” value with AMPKa [pT172] (5 uM) was found to be 5.4 Unit/ml; in the assay on AMPKa [pT172] (10 uM) it was 6.6 Unit/ml; in the assay on AMPKa [pT172] (50 uM), 19.1 Unit/ml.

Consider `CC1CCN(C(=N)NC(=N)Nc2ccc(Cl)cc2)CC1.Cl` [Example 55], for which the “AMPKa activation [pT172]” value in the assay on AMPKa [pT172] (5 uM) is on record as 3.5 Unit/ml; in the assay with AMPKa [pT172] (10 uM) it was 5.3 Unit/ml; in the assay with AMPKa [pT172] (50 uM), “cell death”.

Turning to `CN(C)/C(=N\Cc1ccc(F)cc1)NC(=N)N1CCCCC1.Cl` [Example 93, N1,N1-dimethyl-N2-(4-fluoro)benzyl-N5-piperidine Biguanide Hydrochloride], the “AMPKa activation [pT172]” value in the assay on AMPKa [pT172] (50 uM) is 6.6 Unit/ml.
